# Assay results as given in ChEMBL document CHEMBL5360612, “Macrocyclic Carbon-Linked Pyrazoles As Novel Inhibitors of MCL-1” (ACS Med Chem Lett, 2023).
# Several values for one entry are separate records, joined by “and”; a condition that tells them apart may be missing. Equal entries are not always repeated.
# How the values were obtained:
# [1] = biological target: Induced myeloid leukemia cell differentiation protein Mcl-1 (Homo sapiens, UniProt Q07820); assay: Displacement of Cy5-labeled BIM BH3 peptide (H3N-(C/Cy5Mal)-WIAQELRRIGDEFN-OH) from MCL-1 (unknown origin) assessed as inhibition constant incubated for 60 mins by HTRF assay
# Sequence of Induced myeloid leukemia cell differentiation protein Mcl-1 (Q07820 whole entry): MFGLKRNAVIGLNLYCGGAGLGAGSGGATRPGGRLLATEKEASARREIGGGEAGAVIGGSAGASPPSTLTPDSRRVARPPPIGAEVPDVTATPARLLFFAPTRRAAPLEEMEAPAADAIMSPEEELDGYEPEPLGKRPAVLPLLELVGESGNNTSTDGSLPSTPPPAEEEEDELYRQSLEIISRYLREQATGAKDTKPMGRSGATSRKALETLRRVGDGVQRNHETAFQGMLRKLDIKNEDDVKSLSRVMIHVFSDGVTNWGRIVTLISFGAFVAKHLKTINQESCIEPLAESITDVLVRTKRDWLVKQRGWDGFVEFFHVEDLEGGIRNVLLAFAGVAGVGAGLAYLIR
# MOLP-8 = assay: Induction of apoptosis in human MOLP8 cells using luminescent caspase-3/7 as substrate incubated for 2 hrs by Caspase-Glo 3/7 assay; format: functional, cell-based; conditions: MOLP-8, 2 h
# [2] = Ratio of AC50 for induction of apoptosis in human MOLP8 cells using luminescent caspase-3/7 as substrate to Ki for displacement of Cy5-labeled BIM BH3 peptide (H3N-(C/Cy5Mal)-WIAQELRRIGDEFN-OH) from MCL-1 (unknown origin) assessed as inhibition constant
# [3] = Solubility of compound in pH 2 buffer incubated for 3 days by LC-MS/MS analysis; format: physicochemical; conditions: time 3 day
# [4] = Solubility of compound in pH 7 buffer incubated for 3 days by LC-MS/MS analysis; format: physicochemical; conditions: time 3 day
# KMS-12-PE [5] = assay: Induction of apoptosis in human KMS-12-PE cells; format: functional, cell-based
# KMS-12-PE [6] = assay: Induction of apoptosis in MCL-1 knockout human KMS-12-PE cells overexpressing BFL-1; format: functional, cell-based
# [7] = Chromatographic hydrophobicity index, log D of the compound at pH 7.4 by UPLC-TOF analysis; format: physicochemical; conditions: buffer
# [8] = Intrinsic clearance in human liver microsomes; format: ADME, Microsome; conditions: read-out: CLH
# [9] = Intrinsic clearance in mouse liver microsomes; format: ADME, Microsome; conditions: read-out: CLH
# Cytochrome P450 1A2 = biological target: T1, Cytochrome P450 1A2 (Homo sapiens, UniProt P05177); assay: Inhibition of recombinant human CYP1A2 by fluorescence microplate reader assay; format: ADME
# T1 sequence (P05177 whole entry): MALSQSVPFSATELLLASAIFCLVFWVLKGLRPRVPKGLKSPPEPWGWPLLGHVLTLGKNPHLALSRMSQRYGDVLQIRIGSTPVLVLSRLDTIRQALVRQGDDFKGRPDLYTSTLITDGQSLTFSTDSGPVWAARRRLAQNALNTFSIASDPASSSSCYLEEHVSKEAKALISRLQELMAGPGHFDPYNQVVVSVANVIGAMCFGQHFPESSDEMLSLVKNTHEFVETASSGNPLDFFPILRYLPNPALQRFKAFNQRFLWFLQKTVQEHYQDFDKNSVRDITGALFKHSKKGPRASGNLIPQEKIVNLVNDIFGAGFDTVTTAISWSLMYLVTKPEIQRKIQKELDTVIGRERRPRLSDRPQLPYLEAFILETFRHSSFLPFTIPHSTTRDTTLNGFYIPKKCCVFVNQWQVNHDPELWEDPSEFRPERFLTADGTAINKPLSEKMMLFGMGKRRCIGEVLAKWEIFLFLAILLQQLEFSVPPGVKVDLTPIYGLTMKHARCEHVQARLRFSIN
# Cytochrome P450 2C19 = Cytochrome P450 2C19 (Homo sapiens, UniProt P33261); assay: Inhibition of recombinant human CYP2C19 by fluorescence microplate reader assay; format: ADME
# Sequence of Cytochrome P450 2C19 (P33261 whole entry): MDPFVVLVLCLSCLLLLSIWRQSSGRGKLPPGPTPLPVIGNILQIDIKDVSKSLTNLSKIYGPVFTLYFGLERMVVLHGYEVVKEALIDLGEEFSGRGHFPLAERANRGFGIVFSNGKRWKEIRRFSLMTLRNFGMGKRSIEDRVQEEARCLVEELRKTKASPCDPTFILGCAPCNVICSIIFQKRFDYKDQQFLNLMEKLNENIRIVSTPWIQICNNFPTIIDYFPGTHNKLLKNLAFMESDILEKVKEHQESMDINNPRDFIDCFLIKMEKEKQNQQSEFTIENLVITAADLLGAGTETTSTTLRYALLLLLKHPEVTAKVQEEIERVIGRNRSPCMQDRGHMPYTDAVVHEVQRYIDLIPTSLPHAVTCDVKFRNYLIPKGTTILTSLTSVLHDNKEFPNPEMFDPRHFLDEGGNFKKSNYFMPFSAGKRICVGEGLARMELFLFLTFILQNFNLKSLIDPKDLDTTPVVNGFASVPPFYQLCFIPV
# Cytochrome P450 2C8 = biological target: T2, Cytochrome P450 2C8 (Homo sapiens, UniProt P10632); assay: Inhibition of recombinant human CYP2C8 by fluorescence microplate reader assay; format: ADME
# T2 sequence (P10632 whole entry): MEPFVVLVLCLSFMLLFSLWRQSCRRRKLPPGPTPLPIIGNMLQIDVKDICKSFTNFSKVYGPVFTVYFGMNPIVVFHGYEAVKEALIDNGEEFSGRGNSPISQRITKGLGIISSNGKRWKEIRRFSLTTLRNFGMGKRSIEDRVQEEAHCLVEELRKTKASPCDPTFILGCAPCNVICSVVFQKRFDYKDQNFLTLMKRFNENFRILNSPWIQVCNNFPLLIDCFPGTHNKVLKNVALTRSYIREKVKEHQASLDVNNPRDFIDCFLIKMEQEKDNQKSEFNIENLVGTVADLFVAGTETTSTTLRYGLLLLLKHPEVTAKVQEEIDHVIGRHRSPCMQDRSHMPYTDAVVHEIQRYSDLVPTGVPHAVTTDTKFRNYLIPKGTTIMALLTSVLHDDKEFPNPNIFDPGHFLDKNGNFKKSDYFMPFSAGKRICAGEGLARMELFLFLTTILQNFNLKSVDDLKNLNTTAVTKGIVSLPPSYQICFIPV
# Cytochrome P450 2C9 = Cytochrome P450 2C9 (Homo sapiens, UniProt P11712); assay: Inhibition of recombinant human CYP2C9 by fluorescence microplate reader assay; format: ADME
# Sequence of Cytochrome P450 2C9 (P11712 whole entry): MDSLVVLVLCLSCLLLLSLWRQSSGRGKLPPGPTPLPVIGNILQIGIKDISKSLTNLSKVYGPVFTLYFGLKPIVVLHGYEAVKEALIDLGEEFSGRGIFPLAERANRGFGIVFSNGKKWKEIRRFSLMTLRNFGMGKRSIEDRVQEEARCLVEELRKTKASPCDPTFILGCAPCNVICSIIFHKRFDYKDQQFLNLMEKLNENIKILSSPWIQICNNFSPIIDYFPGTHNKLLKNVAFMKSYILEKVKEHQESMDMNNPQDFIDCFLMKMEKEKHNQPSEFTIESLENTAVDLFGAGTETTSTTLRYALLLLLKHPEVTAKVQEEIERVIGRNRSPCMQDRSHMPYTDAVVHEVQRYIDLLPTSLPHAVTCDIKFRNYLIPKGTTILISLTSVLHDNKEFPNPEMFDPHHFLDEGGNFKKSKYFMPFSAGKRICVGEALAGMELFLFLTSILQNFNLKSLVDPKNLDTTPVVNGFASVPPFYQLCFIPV
# Cytochrome P450 2D6 = Cytochrome P450 2D6 (Homo sapiens, UniProt P10635); assay: Inhibition of recombinant human CYP2D6 by fluorescence microplate reader assay; format: ADME
# Sequence of Cytochrome P450 2D6 (P10635 whole entry): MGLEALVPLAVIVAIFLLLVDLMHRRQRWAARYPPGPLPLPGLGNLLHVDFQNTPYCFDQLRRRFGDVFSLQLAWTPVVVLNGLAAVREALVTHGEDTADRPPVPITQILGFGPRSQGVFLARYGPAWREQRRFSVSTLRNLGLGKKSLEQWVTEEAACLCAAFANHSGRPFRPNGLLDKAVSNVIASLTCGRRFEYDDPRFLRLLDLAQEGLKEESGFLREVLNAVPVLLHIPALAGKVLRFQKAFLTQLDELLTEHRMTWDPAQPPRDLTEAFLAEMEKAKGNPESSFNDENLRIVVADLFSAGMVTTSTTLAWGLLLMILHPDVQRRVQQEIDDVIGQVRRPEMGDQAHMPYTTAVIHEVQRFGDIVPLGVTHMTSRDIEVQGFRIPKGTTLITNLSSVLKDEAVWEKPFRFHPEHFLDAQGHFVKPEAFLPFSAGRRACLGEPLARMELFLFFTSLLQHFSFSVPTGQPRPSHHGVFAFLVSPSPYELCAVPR
# Cytochrome P450 3A4 = Cytochrome P450 3A4 (Homo sapiens, UniProt P08684); assay: Inhibition of recombinant human CYP3A4 by fluorescence microplate reader assay; format: ADME
# Sequence of Cytochrome P450 3A4 (P08684 whole entry): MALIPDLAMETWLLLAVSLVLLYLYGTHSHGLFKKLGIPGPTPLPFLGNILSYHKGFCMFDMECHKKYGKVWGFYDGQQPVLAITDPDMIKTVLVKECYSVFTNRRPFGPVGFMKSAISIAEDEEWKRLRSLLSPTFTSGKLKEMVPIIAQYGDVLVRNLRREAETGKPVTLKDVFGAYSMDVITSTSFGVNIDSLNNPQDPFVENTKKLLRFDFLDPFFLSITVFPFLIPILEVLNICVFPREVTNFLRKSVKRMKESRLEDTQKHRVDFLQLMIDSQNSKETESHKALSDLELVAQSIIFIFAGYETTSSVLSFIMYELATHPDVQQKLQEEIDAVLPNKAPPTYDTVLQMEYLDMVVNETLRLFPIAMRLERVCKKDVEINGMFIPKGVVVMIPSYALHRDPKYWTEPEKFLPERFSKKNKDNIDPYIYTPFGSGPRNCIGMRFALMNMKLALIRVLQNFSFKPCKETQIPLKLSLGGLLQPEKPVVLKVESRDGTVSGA
# [10] = Cardiotoxicity in human iPSC-CM assessed as calcium transients at 0.1 uM by CTCM assay; format: toxicity, cell-based
# [11] = Cardiotoxicity in human iPSC-CM assessed as calcium transients at 0.3 uM by CTCM assay; format: toxicity, cell-based
# [12] = Cardiotoxicity in human iPSC-CM assessed as calcium transients at 1 uM by CTCM assay; format: toxicity, cell-based
# [13] = Cardiotoxicity in human iPSC-CM assessed as calcium transients at 3 uM by CTCM assay; format: toxicity, cell-based
# [14] = Cardiotoxicity in human iPSC-CM assessed as calcium transients at 10 uM by CTCM assay; format: toxicity, cell-based
# [15] = biological target: Voltage-gated inwardly rectifying potassium channel KCNH2 (Homo sapiens, UniProt Q12809); assay: […] from human ERG by PatchXpress assay; format: toxicity
# Sequence of Voltage-gated inwardly rectifying potassium channel KCNH2 (Q12809 whole entry): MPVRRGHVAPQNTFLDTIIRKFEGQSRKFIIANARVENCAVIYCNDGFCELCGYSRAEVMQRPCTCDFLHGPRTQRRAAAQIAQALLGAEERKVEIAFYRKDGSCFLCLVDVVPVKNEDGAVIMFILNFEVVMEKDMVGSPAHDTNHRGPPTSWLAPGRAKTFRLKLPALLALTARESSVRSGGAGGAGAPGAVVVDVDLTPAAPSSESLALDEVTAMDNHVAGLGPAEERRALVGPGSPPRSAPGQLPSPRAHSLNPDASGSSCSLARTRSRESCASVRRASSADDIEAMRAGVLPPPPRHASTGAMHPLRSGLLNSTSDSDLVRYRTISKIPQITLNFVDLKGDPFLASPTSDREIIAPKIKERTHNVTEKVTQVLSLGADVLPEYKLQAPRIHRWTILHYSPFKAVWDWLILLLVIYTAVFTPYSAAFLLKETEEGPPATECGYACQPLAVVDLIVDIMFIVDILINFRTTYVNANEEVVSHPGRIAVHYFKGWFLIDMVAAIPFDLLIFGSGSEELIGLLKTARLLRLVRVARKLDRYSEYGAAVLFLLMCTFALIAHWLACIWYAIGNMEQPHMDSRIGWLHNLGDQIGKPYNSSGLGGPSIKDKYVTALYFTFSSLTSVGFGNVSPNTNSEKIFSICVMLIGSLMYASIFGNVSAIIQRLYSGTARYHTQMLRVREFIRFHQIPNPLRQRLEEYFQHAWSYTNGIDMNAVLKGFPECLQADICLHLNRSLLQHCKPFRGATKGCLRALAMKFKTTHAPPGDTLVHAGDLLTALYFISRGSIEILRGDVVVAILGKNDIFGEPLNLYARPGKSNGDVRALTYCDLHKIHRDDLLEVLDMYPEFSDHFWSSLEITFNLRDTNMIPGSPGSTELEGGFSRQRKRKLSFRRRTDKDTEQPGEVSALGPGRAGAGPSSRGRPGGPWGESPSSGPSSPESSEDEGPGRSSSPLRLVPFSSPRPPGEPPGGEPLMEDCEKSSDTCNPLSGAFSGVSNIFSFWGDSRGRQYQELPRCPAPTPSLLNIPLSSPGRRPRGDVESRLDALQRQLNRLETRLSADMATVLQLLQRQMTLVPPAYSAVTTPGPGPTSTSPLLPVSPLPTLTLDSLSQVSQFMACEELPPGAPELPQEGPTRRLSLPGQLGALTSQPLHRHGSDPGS
SMILES,Ki [1] [nM],solubility at 72 h [3] [µM],solubility at 72 h [4] [µM],AC50 (MOLP-8) [nM],Ratio [2],other results
Cc1nn(C)c2c1CSCc1cc(n(C)n1)CCc1cc(c3ccc(F)cc3c1)OCCCc1c(C(=O)[O-])n(C)c3c-2c(Cl)ccc13.[Na+],0.041,< 0.03,550,10,243,
COCCOCc1nn(C)c2c1CSCc1cc(n(C)n1)CCc1cc(c3ccc(F)cc3c1)OCCCc1c(C(=O)O)n(C)c3c-2c(Cl)ccc13,0.018,< 0.02,580,14,777,AC50 (KMS-12-PE [5]): 111 nM; AC50 (KMS-12-PE [6]): > 30000 nM; chromatographic logD [7]: 2.49; microsomal CLint [8]: 48 µL/min/mg; microsomal CLint [9]: 157 µL/min/mg; IC50 (Cytochrome P450 1A2): > 20000 nM; IC50 (Cytochrome P450 2C19): > 20000 nM; IC50 (Cytochrome P450 2C8): 9600 nM; IC50 (Cytochrome P450 2C9): 19000 nM; IC50 (Cytochrome P450 2D6): > 20000 nM; IC50 (Cytochrome P450 3A4): > 20000 nM; Activity [10]: Non-Toxic; Activity [11]: Non-Toxic; Activity [12]: Non-Toxic; Activity [13]: Non-Toxic; Activity [14]: Non-Toxic; IC50 [15]: > 30000 nM
COCCOCCc1nn(C)c2c1CSCc1cc(n(C)n1)CCc1cc(c3ccc(F)cc3c1)OCCCc1c(C(=O)O)n(C)c3c-2c(Cl)ccc13,0.013,< 0.29,460,16,1230,
Cn1nc2cc1CCc1cc(c3ccc(F)cc3c1)OCCCc1c(C(=O)O)[nH]c3c(c(Cl)ccc13)-c1c(cnn1C)CSC2,0.047,,,202,4300,
COCCOCCn1nc(C)c2c1CSCc1cc(n(C)n1)CCc1cc(c3ccc(F)cc3c1)OCCCn1c(C(=O)O)c(C)c3c-2c(Cl)ccc31,,,,12,,
Cn1nc2cc1CCc1cc(c3ccc(F)cc3c1)OCCCc1c(C(=O)O)n(CCN3CCOCC3)c3c(c(Cl)ccc13)-c1c(cnn1C)CSC2,0.02,580,550,76,3800,AC50 (KMS-12-PE [5]): 407 nM; AC50 (KMS-12-PE [6]): > 30000 nM; chromatographic logD [7]: 2.53; microsomal CLint [8]: 43 µL/min/mg; microsomal CLint [9]: 24 µL/min/mg; IC50 (Cytochrome P450 1A2): > 20000 nM; IC50 (Cytochrome P450 2C19): > 20000 nM; IC50 (Cytochrome P450 2C8): 5600 nM; IC50 (Cytochrome P450 2C9): > 20000 nM; IC50 (Cytochrome P450 2D6): 10500 nM; IC50 (Cytochrome P450 3A4): 9500 nM; Activity [10]: Non-Toxic; Activity [11]: Non-Toxic; Activity [12]: Non-Toxic; Activity [13]: Non-Toxic; Activity [14]: Non-Toxic; IC50 [15]: > 30000 nM

# More lines, main results first:
Ki [1] [nM],solubility at 72 h [3] [µM],solubility at 72 h [4] [µM],SMILES,AC50 (MOLP-8) [nM],Ratio [2],other results
0.02,< 0.23,520,COCCOCCn1c(C(=O)O)c2c3ccc(Cl)c(c31)-c1c(cnn1C)CSCc1cc(n(C)n1)CCc1cc(c3ccc(F)cc3c1)OCCC2,52,2600,
0.032,< 0.04,210,Cc1nn(C)c2c1CSCc1cc(n(C)n1)CCc1cc(c3ccccc3c1)OCCCc1c(C(=O)[O-])n(C)c3c-2c(Cl)ccc13.[Na+],45,1406,
0.022,< 0.02,10.4,COCCn1c(C(=O)O)c2c3ccc(Cl)c(c31)-c1c(cnn1C)CSCc1cc(n(C)n1)CCc1cc(c3ccc(F)cc3c1)OCCC2,43,1954,
0.04,< 0.27,9.7,Cc1nn(C)c2c1CSCc1cc(n(C)n1)CSc1cc(c3ccccc3c1)OCCCc1c(C(=O)O)n(C)c3c-2c(Cl)ccc13,54,1350,
,< 0.55,< 0.49,Cn1nc2cc1CSc1cc(c3ccccc3c1)OCCCc1c(C(=O)O)n(C)c3c(c(Cl)ccc13)-c1c(cnn1C)CSC2,,738 and >900,
0.023,< 0.06,590,COCCOCc1nn(C)c2c1CSCc1cc(n(C)n1)CCc1cc(c3ccccc3c1)OCCCc1c(C(=O)O)n(C)c3c-2c(Cl)ccc13,43,1870,
0.034,,,CN(C)CCn1c(C(=O)O)c2c3ccc(Cl)c(c31)-c1c(cnn1C)CSCc1cc(n(C)n1)CCc1cc(c3ccc(F)cc3c1)OCCC2,120,3530,
